Experimental data reported in patent US20090011410A1, “METHOD FOR TAILORING ADMINISTRATION OF DRUGS BY QUANTITATION OF MRNA” (priority 2004, published 2009).

Legend:
[1] = tested on: IL-2 mRNA; assay: PHA-P-induced leukocyte IL-2 mRNA expression in heparinized whole blood of healthy adults; type: cell-based, human
Text: Blood was obtained from healthy adults and from patients with psoriasis (4), aplastic anemia (1), nephrotic syndrome (1), and bone marrow transplantation (2). At the time of blood draw, one EDTA tube was sent to clinical laboratory for the measurement of leukocyte counts, and one heparin tube was stored on ice. […] Fifty μL each of blood sample was applied to three different wells of filterplates (triplicate from the beginning), and leukocytes were collected on the membrane by centrifugation at 800×g for 2 min. After washing each well with 300 μL phosphate buffered saline (PBS) once by centrifugation, the lysis buffer described above was applied to each well and incubated at 37° C. for 10 min to release mRNA from trapped leukocytes. The lysate was then transferred to oligo-(dT)-immobilized microplates (GenePlate, RNAture, Irvine, Calif.) by centrifugation at 2000× g for 5 min, and incubated at 4° C. overnight for hybridization. After washing each well with 100 μL lysis buffer 3 times followed by 150 μL wash buffer (10 mM Tris, pH 7.4, 1 mM EDTA, pH 8.0, and 0.5 M NaCl) 3 times, cDNA was synthesized in each well by adding buffer, nucleotides, a cocktail of specific primers, RNasin, and MMLV reverse transcriptase (Promega, Madison, Wis.), and incubated at 37° C. for 2 hours. […]

[2] = tested on: lymphocyte blastogenesis; details: induction of lymphocyte blastogenesis, activity declined at higher doses; cited from earlier work

## phytohemagglutinin-P [PHA-P]
[1]; heparinized whole blood (FIG. 18)
  PHA-P concentration from which IL-2 mRNA increased: ≥ 5 µg/mL
[1]; heparinized whole blood (FIG. 18, 19)
  PHA-P concentration over which IL-2 mRNA reached a plateau: over 40 μg/mL
[2]
  PHA-P concentration of maximal action: 10 to 20 µg/mL
